Key:
Type in all cases: in vivo
[1] = tested on: redroot pigweed (Amaranthus retroflexus, AMARE); experiment: Pre-emerge test, greenhouse herbicide activity screening; conditions: pre-emerge, rated 14 days after application, 0 = no damage, 100 = complete death
Summary of the method: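 Herbicidal damage is scored 0 (none) to 100 (complete plant death) two weeks after a simulated field spray. Rates span 15–1000 g ai/ha, delivered in acetone at 187 l/ha. For post-emergence treatments, plants have 2–3 leaves and the spray carries 0.25% v/v non-ionic surfactant.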

[2] = tested on: barnyardgrass (Echinochloa crus-galli, ECHCG); experiment: as above; conditions: pre-emerge, rated 14 days after application, 0 = no damage, 100 = complete death
Summary of the method: (§1)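 Fourteen days after spraying, crop and weed injury was graded visually from 0, no effect, to 100, every plant dead. Test substances were dissolved in acetone and applied at 15–1000 g ai/ha with a flat-fan nozzle. Application was either pre-emergence, one day after sowing, or post-emergence at the 2–3 leaf stage.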

[3] = tested on: common ragweed (Ambrosia artemisizfolia L., AMBEL); experiment: as above; conditions: pre-emerge, rated 14 days after application, 0 = no damage, 100 = complete death
Summary of the method: as §1

[4] = tested on: green foxtail (Setaria viridis, SETVI); experiment: as above; conditions: pre-emerge, rated 14 days after application, 0 = no damage, 100 = complete death
Summary of the method: as §1

[5] = tested on: ivyleaf morningglory (Ipomoea hederacea, IPOHE); experiment: as above; conditions: pre-emerge, rated 14 days after application, 0 = no damage, 100 = complete death
Summary of the method: as §1

[6] = tested on: johnsongrass (Sorghum halepense, SORHA); experiment: as above; conditions: pre-emerge, rated 14 days after application, 0 = no damage, 100 = complete death
Summary of the method: as §1

[7] = tested on: lambsquarters (Chenopodium album, CHEAL); experiment: as above; conditions: pre-emerge, rated 14 days after application, 0 = no damage, 100 = complete death
Summary of the method: as §1

[8] = tested on: large crabgrass (Digitaria sanguinalis, DIGSA); experiment: as above; conditions: pre-emerge, rated 14 days after application, 0 = no damage, 100 = complete death
Summary of the method: as §1

[9] = tested on: sicklepod (Cassia obtusifolia, CASOB); experiment: as above; conditions: pre-emerge, rated 14 days after application, 0 = no damage, 100 = complete death
Summary of the method: as §1

[10] = tested on: velvetleaf (Abutilon theophrasti, ABUTH); experiment: as above; conditions: pre-emerge, rated 14 days after application, 0 = no damage, 100 = complete death
Summary of the method: as §1

[11] = tested on: field corn (Zea mays L., var. Dekalb 535, CORN); experiment: Pre-emerge test, crop safety; conditions: pre-emerge, rated 14 days after application, 0 = no damage, 100 = complete death
Summary of the method: (§2)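 Applied at 15–1000 g ai/ha from acetone in 187 l/ha spray volume. Post-emergence applications included 0.25% v/v non-ionic surfactant and reached plants sown 8–21 days before. Pre-emergence applications were incorporated by surface watering. Efficacy or crop damage was rated on a 0–100 scale after 14 days.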

[12] = tested on: upland rice (Oryza sp., var. Tebonnet, RICE); experiment: Pre-emerge test, crop safety; conditions: pre-emerge, rated 14 days after application, 0 = no damage, 100 = complete death
Summary of the method: as §2

[13] = tested on: barnyardgrass (Echinochloa crus-galli, ECHCG); experiment: Post-emerge test, greenhouse herbicide activity screening; conditions: phytotoxicity rating 0-100 (0 no damage, 100 complete death), 14 days after application
Summary of the method: (§3)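 Each test used a mechanized track sprayer delivering 187 l/ha of acetone solution at 15–1000 g ai/ha. Post-emerge foliage at 2–3 leaves was treated with added 0.25% v/v non-ionic surfactant and bottom-watered only. Injury was assessed on day 14, where 100 means total kill.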

[14] = tested on: green foxtail (Setaria viridis, SETVI); experiment: as above; conditions: phytotoxicity rating 0-100 (0 no damage, 100 complete death), 14 days after application
Summary of the method: as §3

[15] = tested on: ivyleaf morningglory (Ipomoea hederacea, IPOHE); experiment: as above; conditions: phytotoxicity rating 0-100 (0 no damage, 100 complete death), 14 days after application
Summary of the method: as §3

[16] = tested on: johnsongrass (Sorghum halepense, SORHA); experiment: as above; conditions: phytotoxicity rating 0-100 (0 no damage, 100 complete death), 14 days after application
Summary of the method: as §3

[17] = tested on: lambsquarters (Chenopodium album, CHEAL); experiment: as above; conditions: phytotoxicity rating 0-100 (0 no damage, 100 complete death), 14 days after application
Summary of the method: as §3

[18] = tested on: large crabgrass (Digitaria sanguinalis, DIGSA); experiment: as above; conditions: phytotoxicity rating 0-100 (0 no damage, 100 complete death), 14 days after application
Summary of the method: as §3

[19] = tested on: redroot pigweed (Amaranthus retroflexus, AMARE); experiment: as above; conditions: phytotoxicity rating 0-100 (0 no damage, 100 complete death), 14 days after application
Summary of the method: as §3

[20] = tested on: sicklepod (Cassia obtusifolia, CASOB); experiment: as above; conditions: phytotoxicity rating 0-100 (0 no damage, 100 complete death), 14 days after application
Summary of the method: as §3

[21] = tested on: velvetleaf (Abutilon theophrasti, ABUTH); experiment: as above; conditions: phytotoxicity rating 0-100 (0 no damage, 100 complete death), 14 days after application
Summary of the method: as §3

[22] = tested on: field corn (Zea mays L., var. Dekalb 535, CORN); experiment: Post-emerge test, crop safety; conditions: phytotoxicity rating 0-100 (0 no damage, 100 complete death), 14 days after application
Summary of the method: as §1

[23] = tested on: upland rice (Oryza sp., var. Tebonnet, RICE); experiment: Post-emerge test, crop safety; conditions: phytotoxicity rating 0-100 (0 no damage, 100 complete death), 14 days after application
Summary of the method: as §1

Structure (SMILES): CCOC(=O)C(C)Nc1cc(OC(F)F)cc(F)c1-n1c(=O)cc(C(F)(F)F)n(C)c1=O (stereo not shown) [Compound 1-53]
- Pre-emerge Herbicidal Activity AMARE (phytotoxicity rating, scale 0-100) ([1]; 63 g ai/ha): 100
- Pre-emerge Herbicidal Activity AMARE (phytotoxicity rating, scale 0-100) ([1]; 250 g ai/ha): 100
- Pre-emerge Herbicidal Activity ECHCG (phytotoxicity rating, scale 0-100) ([2]; 63 g ai/ha): 0
- Pre-emerge Herbicidal Activity ECHCG (phytotoxicity rating, scale 0-100) ([2]; 250 g ai/ha): 80
- Pre-emerge Herbicidal Activity AMBEL (phytotoxicity rating, scale 0-100) ([3]; 63 g ai/ha): 50
- Pre-emerge Herbicidal Activity AMBEL (phytotoxicity rating, scale 0-100) ([3]; 250 g ai/ha): 90
- Pre-emerge Herbicidal Activity SETVI (phytotoxicity rating, scale 0-100) ([4]; 63 g ai/ha): 50
- Pre-emerge Herbicidal Activity SETVI (phytotoxicity rating, scale 0-100) ([4]; 250 g ai/ha): 95
- Pre-emerge Herbicidal Activity IPOHE (phytotoxicity rating, scale 0-100) ([5]; 63 g ai/ha): 50
- Pre-emerge Herbicidal Activity IPOHE (phytotoxicity rating, scale 0-100) ([5]; 250 g ai/ha): 95
- Pre-emerge Herbicidal Activity SORHA (phytotoxicity rating, scale 0-100) ([6]; 63 g ai/ha): 50
- Pre-emerge Herbicidal Activity SORHA (phytotoxicity rating, scale 0-100) ([6]; 250 g ai/ha): 90
- Pre-emerge Herbicidal Activity CHEAL (phytotoxicity rating, scale 0-100) ([7]; 63 g ai/ha): 100
- Pre-emerge Herbicidal Activity CHEAL (phytotoxicity rating, scale 0-100) ([7]; 250 g ai/ha): 100
- Pre-emerge Herbicidal Activity DIGSA (phytotoxicity rating, scale 0-100) ([8]; 63 g ai/ha): 40
- Pre-emerge Herbicidal Activity DIGSA (phytotoxicity rating, scale 0-100) ([8]; 250 g ai/ha): 90
- Pre-emerge Herbicidal Activity CASOB (phytotoxicity rating, scale 0-100) ([9]; 63 g ai/ha): 0
- Pre-emerge Herbicidal Activity CASOB (phytotoxicity rating, scale 0-100) ([9]; 250 g ai/ha): 50
- Pre-emerge Herbicidal Activity ABUTH (phytotoxicity rating, scale 0-100) ([10]; 63 g ai/ha): 100
- Pre-emerge Herbicidal Activity ABUTH (phytotoxicity rating, scale 0-100) ([10]; 250 g ai/ha): 100
- Pre-emerge crop damage CORN (phytotoxicity rating, scale 0-100) ([11]; 63 g ai/ha): 95
- Pre-emerge crop damage CORN (phytotoxicity rating, scale 0-100) ([11]; 250 g ai/ha): 100
- Pre-emerge crop damage RICE (phytotoxicity rating, scale 0-100) ([12]; 63 g ai/ha): 50
- Pre-emerge crop damage RICE (phytotoxicity rating, scale 0-100) ([12]; 250 g ai/ha): 90
- Post-emerge Herbicidal Activity ECHCG ([13]; 63 g ai/ha): 0
- Post-emerge Herbicidal Activity ECHCG ([13]; 250 g ai/ha): 50
- Post-emerge Herbicidal Activity SETVI ([14]; 63 g ai/ha): 0
- Post-emerge Herbicidal Activity SETVI ([14]; 250 g ai/ha): 80
- Post-emerge Herbicidal Activity IPOHE ([15]; 63 g ai/ha): 95
- Post-emerge Herbicidal Activity IPOHE ([15]; 250 g ai/ha): 100
- Post-emerge Herbicidal Activity SORHA ([16]; 63 g ai/ha): 0
- Post-emerge Herbicidal Activity SORHA ([16]; 250 g ai/ha): 40
- Post-emerge Herbicidal Activity CHEAL ([17]; 63 g ai/ha): 50
- Post-emerge Herbicidal Activity CHEAL ([17]; 250 g ai/ha): 100
- Post-emerge Herbicidal Activity DIGSA ([18]; 63 g ai/ha): 0
- Post-emerge Herbicidal Activity DIGSA ([18]; 250 g ai/ha): 50
- Post-emerge Herbicidal Activity AMARE ([19]; 63 g ai/ha): 80
- Post-emerge Herbicidal Activity AMARE ([19]; 250 g ai/ha): 100
- Post-emerge Herbicidal Activity CASOB ([20]; 63 g ai/ha): 60
- Post-emerge Herbicidal Activity CASOB ([20]; 250 g ai/ha): 95
- Post-emerge Herbicidal Activity ABUTH ([21]; 63 g ai/ha): 100
- Post-emerge Herbicidal Activity ABUTH ([21]; 250 g ai/ha): 100
- Post-emerge Herbicidal Activity CORN (crop damage) ([22]; 63 g ai/ha): 0
- Post-emerge Herbicidal Activity CORN (crop damage) ([22]; 250 g ai/ha): 30
- Post-emerge Herbicidal Activity RICE (crop damage) ([23]; 63 g ai/ha): 10
- Post-emerge Herbicidal Activity RICE (crop damage) ([23]; 250 g ai/ha): 60

Source: patent US6355799B1, “Substituted benzene compounds, process for their preparation, and herbicidal and defoliant compositions containing them” (ISK Americas Incorporated, priority 1997, dated 2002)
